Values belong to the compound of their own block, whether it stands above or below them.
How the values were obtained:
Tetranychus urticae = experiment: Action against Tetranychus urticae; type: in vivo; settings: 400 ppm spray on young bean plants, mixed population, 6 days at 25° C.
Protocol: Action against Tetranychus urticae
Young bean plants are populated with a mixed population of Tetranychus urticae and sprayed one day later with an aqueous emulsion spray mixture comprising 400 ppm of the test compound. The plants are then incubated for 6 days at 25° C. and subsequently evaluated. The percentage reduction in population (% activity) is determined by comparing the number of dead eggs, larvae and adults on the treated plants with that on the untreated plants.

Aphis craccivora = experiment: Action against Aphis craccivora; type: in vivo; settings: 400 ppm spray on infested pea seedlings, 20° C., evaluated 3 and 6 days later, read-out: percentage reduction in population (% activity)
Protocol: Action against Aphis craccivora
Pea seedlings are infested with Aphis craccivora, subsequently sprayed with a spray mixture comprising 400 ppm of the test compound and incubated at 20° C. The evaluation is carried out 3 and 6 days later. The percentage reduction in population (% activity) is determined by comparing the number of dead aphids on the treated plants with that on the untreated plants.

Myzus persicae = experiment: Systemic action against Myzus persicae; type: in vivo; settings: pea seedlings with roots in spray mixture of 400 ppm, 20° C., evaluated 3 and 6 days later
Protocol: Systemic Action against Myzus persicae
Pea seedlings are infested with Myzus persicae, and then placed with their roots in a spray mixture comprising 400 ppm of the test compound and incubated at 20° C. The evaluation is carried out 3 and 6 days later. The percentage reduction in population (% activity) is determined by comparing the number of dead aphids on the treated plants with that on the untreated plants.

SMILES: O=C(CCCC=C(F)F)Nc1cccc(OC(F)(F)C(F)F)c1 [Compound 1.17]
percentage reduction in population (% activity) (Tetranychus urticae): more than 80%

melting point: 59 to 60 °C
SMILES: Cc1cc(OC(F)(F)C(F)Cl)ccc1NC(=O)CCCC=C(F)F (stereo not shown) [Compound 1.1, 6,6-Difluorohex-5-enoic acid [4-(2-chloro-1,1,2-trifluoroethoxy)-2-methylphenyl]amide]
inhibition at 400 ppm (Aphis craccivora): > 80%

SMILES: O=C(CCCC=C(F)F)Nc1ccc(OC(F)(F)C(F)F)cc1 [Compound 1.3]
percentage reduction in population (% activity) (Myzus persicae): more than 80%

Source: patent US6852888B2, “Carboxylic acid derivatives” (Syngenta Crop Protection, Inc., priority 1998, dated 2005)
